Data on three compounds can be found in article PMC8704367, “Systematic Analysis and Biochemical Characterization of the Caffeoyl Shikimate Esterase Gene Family in Poplar” (International Journal of Molecular Sciences, 2021).

Common to all, as to format: biochemical
One assay concerns the target T1, PoptoCSE2 (Populus tomentosa, UniProt A0A0S1VWZ0).
T1 construct: gene CSE2; full-length CDS cloned from cambial zone cDNA into pET28a, His-tagged, E. coli BL21(DE3), Ni-NTA
T1 sequence (A0A0S1VWZ0 1-326): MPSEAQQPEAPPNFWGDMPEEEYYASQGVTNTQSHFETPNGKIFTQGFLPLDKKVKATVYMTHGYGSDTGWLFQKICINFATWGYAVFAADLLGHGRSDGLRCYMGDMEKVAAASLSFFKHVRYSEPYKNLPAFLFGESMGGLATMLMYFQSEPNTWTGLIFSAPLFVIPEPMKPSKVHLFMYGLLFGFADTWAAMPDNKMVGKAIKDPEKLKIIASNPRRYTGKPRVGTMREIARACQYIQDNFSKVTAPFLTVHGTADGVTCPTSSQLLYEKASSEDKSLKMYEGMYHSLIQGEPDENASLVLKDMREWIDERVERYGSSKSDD
Nature of the assay: HPLC-MS, appearance of caffeic acid. The note with it: 100 uM substrate, 100 mM sodium phosphate pH 7.5, 0.5 mM DTT, 30 C; substrate made enzymatically with PoptoHCT6.

A further assay concerns the target T2, PoptoCSE1 (Populus tomentosa, UniProt A0A0S1VWX4).
T2 construct: gene CSE1; full-length CDS cloned from cambial zone cDNA into pET28a, His-tagged, E. coli BL21(DE3), Ni-NTA
T2 sequence (A0A0S1VWX4 1-326): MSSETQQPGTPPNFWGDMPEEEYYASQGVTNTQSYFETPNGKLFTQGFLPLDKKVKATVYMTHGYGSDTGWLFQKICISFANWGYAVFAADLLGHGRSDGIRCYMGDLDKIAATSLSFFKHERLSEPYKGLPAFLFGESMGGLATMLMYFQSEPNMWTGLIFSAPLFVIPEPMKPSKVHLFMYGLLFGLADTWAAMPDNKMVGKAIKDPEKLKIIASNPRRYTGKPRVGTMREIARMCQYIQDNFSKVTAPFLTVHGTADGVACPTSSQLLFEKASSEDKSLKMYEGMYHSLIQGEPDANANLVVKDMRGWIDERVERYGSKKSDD
Description: HPLC-MS, appearance of caffeic acid. The settings on record: 100 uM substrate, 100 mM sodium phosphate pH 7.5, 0.5 mM DTT, 30 C; substrate made enzymatically with PoptoHCT6.

The target of the next assay is T3, PoptoHCT6 (Populus tomentosa, UniProt A0A0S1VWY1).
T3 construct: gene HCT6; cloned from cambial zone cDNA into pET28a, His-tagged, E. coli BL21(DE3), Ni-NTA
Description: preparative enzymatic synthesis of caffeoyl shikimate.

T3 sequence (A0A0S1VWY1 1-431): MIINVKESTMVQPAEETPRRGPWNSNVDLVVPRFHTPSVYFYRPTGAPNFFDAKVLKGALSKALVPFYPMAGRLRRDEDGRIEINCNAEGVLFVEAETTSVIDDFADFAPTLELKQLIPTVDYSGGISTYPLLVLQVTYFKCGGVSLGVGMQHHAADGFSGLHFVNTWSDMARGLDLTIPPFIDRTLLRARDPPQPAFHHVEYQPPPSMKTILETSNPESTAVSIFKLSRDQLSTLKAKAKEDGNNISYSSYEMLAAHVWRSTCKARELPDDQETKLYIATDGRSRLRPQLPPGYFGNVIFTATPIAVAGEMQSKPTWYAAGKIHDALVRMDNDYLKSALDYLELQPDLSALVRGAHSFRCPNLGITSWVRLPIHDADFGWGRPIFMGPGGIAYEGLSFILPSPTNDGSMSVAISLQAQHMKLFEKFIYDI

Turning to `O=C(/C=C/c1ccc(O)c(O)c1)O[C@@H]1CC(C(=O)O)=C[C@@H](O)[C@H]1O` [caffeoyl shikimate], the “HPLC-MS, appearance of caffeic acid” value on PoptoCSE2 is “PoptoCSE1 and PoptoCSE2 have detectable activity against caffeoyl shikimate”; at PoptoCSE1, “PoptoCSE1 and PoptoCSE2 have detectable activity against caffeoyl shikimate”.
Regarding `CC(C)(COP(=O)(O)OP(=O)(O)OC[C@H]1O[C@@H](n2cnc3c(N)ncnc32)[C@H](O)[C@@H]1OP(=O)(O)O)[C@@H](O)C(=O)NCCC(=O)NCCSC(=O)/C=C/c1ccc(O)c(O)c1` [caffeoyl-CoA], the “preparative enzymatic synthesis of caffeoyl shikimate” value at PoptoHCT6 (co-substrate shikimic acid) is “caffeoyl shikimate using enzymatic reaction catalyzed by purified recombinant PoptoHCT6 with caffeoyl-CoA and shikimic acid”.
With `O=C(O)C1=C[C@@H](O)[C@@H](O)[C@H](O)C1` [shikimic acid], the “preparative enzymatic synthesis of caffeoyl shikimate” value on PoptoHCT6 (co-substrate caffeoyl-CoA) is “caffeoyl shikimate using enzymatic reaction catalyzed by purified recombinant PoptoHCT6 with caffeoyl-CoA and shikimic acid”.
